Our source for the IC50 values is US11780812B2, “Oxopyridine derivatives useful as aminocarboxymuconate semialdehyde decarboxylase (ACMSD) inhibitors” (OrsoBio, Inc., priority 2016, dated 2023).

Structures are written as SMILES.

human ACMSD, sequence (Q8TDX5 whole entry): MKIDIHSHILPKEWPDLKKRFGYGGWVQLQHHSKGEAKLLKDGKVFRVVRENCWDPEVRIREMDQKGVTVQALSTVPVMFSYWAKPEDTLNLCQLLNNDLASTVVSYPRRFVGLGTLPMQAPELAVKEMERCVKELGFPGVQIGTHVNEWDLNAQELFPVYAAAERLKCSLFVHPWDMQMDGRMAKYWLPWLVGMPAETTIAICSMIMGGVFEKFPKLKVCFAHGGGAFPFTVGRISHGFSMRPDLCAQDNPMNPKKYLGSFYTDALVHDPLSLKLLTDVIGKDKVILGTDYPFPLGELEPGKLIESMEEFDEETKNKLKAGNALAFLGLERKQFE

This assay concerns the target human ACMSD (Homo sapiens (Human), UniProt Q8TDX5). Nature of the assay: Human ACMSD-1 inhibitor assay (coupled 3-HAO/ACMSD, absorbance at 360 nm). The conditions noted are these: read-out: hACMSD IC50; human ACMSD 6 μg/ml, 50 mM MES pH 6.0, 28° C., four-parameter dose-response fit.
Procedure: A solution of 7.8 μg/ml 3-hydroxyanthranilate 3,4-dioxygenase (3-HAO) with protein dilution buffer (50 mM 4-Morpholineethanesulfonic acid “MES” pH 6.0) and a solution of 6 μg/ml Human 2-amino-3-carboxymuconate-6-semialdehyde decarboxylase (human ACMSD) with protein dilution buffer (50 mM MES pH 6.0) were prepared separately. A serial 2-fold dilution of test compounds, from 512 nM until 0.5 nM were prepared.
The plate was placed into a SpectraMax Plus 384 Microplate Reader, Molecular Devices with the temperature set to 28° C. The absorbance at 360 nm for 10 min with 10 seconds interval was monitored and recorded.
To a 96-well plate was added 50 μl of 6 μg/ml human ACMSD with series concentrations of the test compound. The absorbance was recorded at 360 nm for 10 min with 10 seconds interval. The data was analyzed in GraphPad Prism 6. A four-parameter dose-response curve was fitted. “Hill Slope” was constrained between −0.5 and −3, and such constrains was indicated when applied.
A word on the IC50: it is the midpoint of a concentration-inhibition curve. Turning to `N#Cc1c(-c2ccccc2)cc(=O)[nH]c1SCc1cccc(-c2nnn[nH]2)c1` [Ex. 50, 2-((3-(1H-tetrazol-5-yl)benzyl)thio)-6-oxo-4-phenyl-1,6-dihydropyridine-3-carbonitrile], the IC50 amounted to 0.003 µM.
As for `N#Cc1c(-c2cccnc2)cc(=O)[nH]c1SCc1cccc(C(=O)O)c1` [Ex. 37, 3-(((3′-cyano-6′-oxo-1′,6′-dihydro-[3,4′-bipyridin]-2′-yl)thio)methyl)benzoic acid], the figure is 0.05 µM.
Take `CC(Sc1[nH]c(=O)cc(C(F)(F)F)c1C#N)C(=O)O` (stereo not shown) [Ex. 7, 2-(3-cyano-6-oxo-4-(trifluoromethyl)-1,6-dihydropyridin-2-ylthio)propanoic acid]: the 50% inhibitory concentration (IC50) stood at 0.271 µM.
As for `COCc1cc(=O)[nH]c(SCC(=O)O)c1C#N` [Ex. 11, 2-(3-cyano-4-(methoxymethyl)-6-oxo-1,6-dihydropyridin-2-ylthio)acetic acid], the figure is 9 µM; as for `N#Cc1c(-c2ccccc2)cc(=O)[nH]c1SCc1cncc(C(=O)O)c1` [Ex. 34, 5-(((3-cyano-6-oxo-4-phenyl-1,6-dihydropyridin-2-yl)thio)methyl)nicotinic acid], 0.003 µM; as for `CCc1cc(=O)[nH]c(SCC(=O)O)c1C#N` [Ex. 9, 2-((3-cyano-4-ethyl-6-oxo-1,6-dihydropyridin-2-yl)thio)acetic acid], 3.4 µM.
As for `Cc1ccc(-c2cc(=O)[nH]c(SCc3cccc(C(=O)O)c3)c2C#N)cc1` [Ex. 29, 3-(((3-cyano-6-oxo-4-(p-tolyl)-1,6-dihydropyridin-2-yl)thio)methyl)benzoic acid], the figure is 0.004 µM.
Under `N#Cc1c(C(F)(F)F)cc(=O)[nH]c1SCc1cccc(C(=O)O)c1` [Ex. 8, 3-((3-cyano-6-oxo-4-(trifluoromethyl)-1,6-dihydropyridin-2-ylthio)methyl)benzoic acid] stands 1.61 µM; under `N#Cc1c(C(F)(F)F)cc(=O)[nH]c1SCc1cccc(-c2nnn[nH]2)c1` [Ex. 42, 2-(3-(1H-tetrazol-5-yl)benzylthio)-6-oxo-4-(trifluoromethyl)-1,6-dihydropyridine-3-carbonitrile], 0.032 µM.
Consider `N#Cc1c(Cc2ccccc2)cc(=O)[nH]c1SCC(=O)O` [Ex. 18, 2-((4-benzyl-3-cyano-6-oxo-1,6-dihydropyridin-2-yl)thio)acetic acid], for which the IC50 was found to be 0.036 µM.
As to `Cc1c(-c2ccccc2)c(C#N)c(SCc2cccc(C(=O)O)c2)[nH]c1=O` [Ex. 31, 3-((3-cyano-5-methyl-6-oxo-4-phenyl-1,6-dihydropyridin-2-ylthio)methyl)benzoic acid], the IC50 was above 10 µM.
For the compound `N#Cc1c(-c2ccsc2)cc(=O)[nH]c1SCc1cccc(C(=O)O)c1` [Ex. 36, 3-((3-cyano-6-oxo-4-(thiophen-3-yl)-1,6-dihydropyridin-2-ylthio)methyl)benzoic acid], the IC50 amounted to 0.16 µM.
As for `N#Cc1c(C(F)(F)F)cc(=O)[nH]c1SC(F)C(=O)O` (stereo not shown) [Ex. 27, 2-(3-cyano-6-oxo-4-(trifluoromethyl)-1,6-dihydropyridin-2-ylthio)-2-fluoroacetic acid], the figure is 0.009 µM; as for `N#Cc1c(-c2ccccn2)cc(=O)[nH]c1SCc1cccc(C(=O)O)c1` [Ex. 32, 3-(((3′-cyano-6′-oxo-1′,6′-dihydro-[2,4′-bipyridin]-2′-yl)thio)methyl)benzoic acid], 0.17 µM.
As for `N#Cc1c(C(F)(F)F)cc(=O)[nH]c1SCc1cccc(C(=O)O)c1F` [Ex. 22, 3-(((3-cyano-6-oxo-4-(trifluoromethyl)-1,6-dihydropyridin-2-yl)thio)methyl)-2-fluorobenzoic acid], the figure is 0.83 µM.
As for `Cc1cccc(-c2cc(=O)[nH]c(SCc3cccc(-c4nnn[nH]4)c3)c2C#N)c1` [Ex. 55, 2-((3-(1H-tetrazol-5-yl)benzyl)thio)-6-oxo-4-(m-tolyl)-1,6-dihydropyridine-3-carbonitrile], the figure is 0.003 µM.
